Experimental data published in patent US4225593A, “Growth promotion” (Imperial Chemical Industries Limited, priority 1977, dated 1980).

What was measured:
rumen fluid = test: Inhibition of methane production and shift of volatile fatty acids in incubated rumen fluid (in vitro fermentation of hay); set-up: species or system steers; details: for % methane in total gas: 39° C., 15-16 hours, control 8.37; for Ac/Bu: acetate/butyrate, control 3.92; for Ac/Pr: acetate/propionate, control 1.90; for % inhibition of methane / Ac/Bu, expressed as percentage of untreated controls / Ac/Pr, expressed as percentage of untreated controls: relative to untreated controls; for Ac/Bu, expressed as percentage of untreated controls / Ac/Pr, expressed as percentage of untreated controls: signed values
Description: Rumen fluid is collected on a regular routine basis from two steers, which are fed on the same hay-plus-concentrate diet. Sampling time is standarised as far as possible, and the fluid from the two animals is pooled on a 50/50 basis. Large particulate matter is removed by filtering the pooled fluid through four layers of muslin cloth. The filtrate is then diluted in the ratio of one volume of filtrate to three volumes of an artificial rumen fluid (prepared as described by G. L. Bales et al., Journal of Diary Science, 1976, volume 59, page 1850, but omitting acetic acid), and the pH of the mixture is adjusted to 6.9-7.0 with saturated aqueous sodium carbonate solution. Aliquots (50 ml.) of this mixture are dispensed into 100 ml. conical flasks containing dried ground hay (0.5 g.), and each flask is used to test a test compound at a particular concentration.
The test compound is added to the conical flask as a solution in ethanol, the flask is flushed with carbon dioxide gas, stoppered with a suba-seal, and incubated at 39° C. for 15-16 hours. After one hour, a narrow bore needle is inserted through the suba-seal to relieve the gas pressure, and the needle is withdrawn 30 minutes before the incubation is ended. Fermentation is then stopped by placing the flask in ice, and after 15 minutes cooling, the gas over the liquid is analysed for methane by gas chromatrography. The flask contents are then filtered through a previously dried and weighed sintered glass funnel, the funnel is oven-dried and, by difference, the weight of hay digested is determined. (Blank flasks containing no hay are treated similarly to determine non-cellulose residue). Three samples of the filtrate are analysed by gas chromatography for VFAs, and by comparison with the previously determined, pre-incubationlevel of VFAs, the net VFAs (acetate, propionate and butyrate) produced during the incubation is determined.
The test process described in Example 2 was repeated, comparing aplasmomycin with Factor B and C. The following results were obtained, expressed as percentages of the values obtained in untreated controls: […]

[1] = system: rumen metabolism of sheep; test: Short term effects on the rumen metabolism of sheep (rumen V.F.A. composition); format: in vivo; details: 6 hours after treatment
Description: The rumen fermentation patterns of a group of sheep were stabilised by feeding them a standard diet of dried grass (2×500 g. per day) for some months. Six test animals were used for each inclusion level of each test compound. […] Samples of rumen fluid were collected by stomach tube from each animal 6 hours after treatment, and analysed by gas-chromatography for acetate, propionate and butyrate.

Eimeria tenella = test: Anticoccidial activity: preventing coccidial growth in cultures of chick kidney cells inoculated with sporozites; format: cell-based; details: for anticoccidial activity (in words): cultures of chick kidney cells
chick kidney cells = test: Toxic effects on the host cells (chick kidney cells) in the anticoccidial test; format: cell-based; details: only shows toxic effects at this concentration
[2] = Day 4, 0.25 mg/kg, control 10.2
[3] = Day 4, 0.25 mg/kg, control 24.0
[4] = Day 4, 0.25 mg/kg, control 64.5
[5] = Day 7, 0.25 mg/kg, control 10.7
[6] = Day 7, 0.25 mg/kg, control 22.9
[7] = Day 7, 0.25 mg/kg, control 65.6

SMILES: C[C@@H]1CC[C@@H]2O[C@]13O[B-]14O[C@H]3C(=O)O[C@H]3C[C@@H](/C=C/C[C@@H](O)C(C)(C)[C@@H]5CC[C@@H](C)[C@](O5)(O1)[C@@H](O4)C(=O)O[C@H]1C[C@@H](/C=C/C[C@@H](O)C2(C)C)O[C@@H]1C)O[C@@H]3C.[Na+] [Aplasmomycin, aplasmomycin]
- % methane in total gas (rumen fluid; 0.1 μg./ml.): 7.87%
- Ac/Bu (rumen fluid; 0.1 μg./ml.): 4.22
- Ac/Pr (rumen fluid; 0.1 μg./ml.): 1.63
- % methane in total gas (rumen fluid; 0.3 μg./ml.): 5.72%
- Ac/Bu (rumen fluid; 0.3 μg./ml.): 4.75
- Ac/Pr (rumen fluid; 0.3 μg./ml.): 1.36
- % methane in total gas (rumen fluid; 0.5 μg./ml.): 4.87%
- Ac/Bu (rumen fluid; 0.5 μg./ml.): 4.56
- Ac/Pr (rumen fluid; 0.5 μg./ml.): 1.29
- % methane in total gas (rumen fluid; 1 μg./ml.): 3.81%
- Ac/Bu (rumen fluid; 1 μg./ml.): 4.26
- Ac/Pr (rumen fluid; 1 μg./ml.): 1.26
- % methane in total gas (rumen fluid; 3 μg./ml.): 2.58%
- Ac/Bu (rumen fluid; 3 μg./ml.): 3.52
- Ac/Pr (rumen fluid; 3 μg./ml.): 1.34
- % inhibition of methane (rumen fluid; 1 ppm): 57%
- Ac/Bu, expressed as percentage of untreated controls (rumen fluid; 1 ppm): -36 percentages
- Ac/Pr, expressed as percentage of untreated controls (rumen fluid; 1 ppm): -41 percentages
- % inhibition of methane (rumen fluid; 3 ppm): 69%
- Ac/Bu, expressed as percentage of untreated controls (rumen fluid; 3 ppm): -49 percentages
- Ac/Pr, expressed as percentage of untreated controls (rumen fluid; 3 ppm): -40 percentages
- effect on the overall digestive process (in words) (rumen fluid; rumen fluid, weight of hay digested): without at the same time depressing the overall digestive process
- Molar % rumen V.F.A.: Butyrate [1, 2]: 9.8 Molar %
- Molar % rumen V.F.A.: Propionate [1, 3]: 25.1 Molar %
- Molar % rumen V.F.A.: Acetate [1, 4]: 63.7 Molar %
- Molar % rumen V.F.A.: Butyrate ([1]; Day 4, 0.5 mg/kg, control 10.2): 9.9 Molar %
- Molar % rumen V.F.A.: Propionate ([1]; Day 4, 0.5 mg/kg, control 24.0): 25.5 Molar %
- Molar % rumen V.F.A.: Acetate ([1]; Day 4, 0.5 mg/kg, control 64.5): 63.4 Molar %
- Molar % rumen V.F.A.: Butyrate [1, 5]: 9.9 Molar %
- Molar % rumen V.F.A.: Propionate [1, 6]: 24.8 Molar %
- Molar % rumen V.F.A.: Acetate [1, 7]: 63.8 Molar %
- Molar % rumen V.F.A.: Butyrate ([1]; Day 7, 0.5 mg/kg, control 10.7): 9.2 Molar %
- Molar % rumen V.F.A.: Propionate ([1]; Day 7, 0.5 mg/kg, control 22.9): 26.6 Molar %
- Molar % rumen V.F.A.: Acetate ([1]; Day 7, 0.5 mg/kg, control 65.6): 62.6 Molar %
- anticoccidial activity (in words) (Eimeria tenella): show anticoccidial activity
- concentration showing activity against Eimeria tenella (Eimeria tenella; cultures of chick kidney cells inoculated with sporozites): 0.037 ppm
- concentration showing toxic effects on the host cells (chick kidney cells): 9 ppm

SMILES: CC(=O)OC1C/C=C/C2CC(OC(=O)C3O[B-]45OC(C(=O)OC6CC(/C=C/CC(O)C(C)(C)C7CCC(C)C3(O7)O4)OC6C)C3(OC(CCC3C)C1(C)C)O5)C(C)O2 (centres unmarked) [Factor B]
- % inhibition of methane (rumen fluid; 1 ppm): 63%
- Ac/Bu, expressed as percentage of untreated controls (rumen fluid; 1 ppm): +21 percentages
- Ac/Pr, expressed as percentage of untreated controls (rumen fluid; 1 ppm): -48 percentages
- % inhibition of methane (rumen fluid; 3 ppm): 76%
- Ac/Bu, expressed as percentage of untreated controls (rumen fluid; 3 ppm): -18 percentages
- Ac/Pr, expressed as percentage of untreated controls (rumen fluid; 3 ppm): -45 percentages
- Molar % rumen V.F.A.: Butyrate [1, 2]: 11.3 Molar %
- Molar % rumen V.F.A.: Propionate [1, 3]: 22.3 Molar %
- Molar % rumen V.F.A.: Acetate [1, 4]: 65.1 Molar %
- Molar % rumen V.F.A.: Butyrate ([1]; Day 4, 0.5 mg/kg, control 10.2): 11.3 Molar %
- Molar % rumen V.F.A.: Propionate ([1]; Day 4, 0.5 mg/kg, control 24.0): 22.4 Molar %
- Molar % rumen V.F.A.: Acetate ([1]; Day 4, 0.5 mg/kg, control 64.5): 65.0 Molar %
- Molar % rumen V.F.A.: Butyrate [1, 5]: 11.7 Molar %
- Molar % rumen V.F.A.: Propionate [1, 6]: 22.1 Molar %
- Molar % rumen V.F.A.: Acetate [1, 7]: 63.5 Molar %
- Molar % rumen V.F.A.: Butyrate ([1]; Day 7, 0.5 mg/kg, control 10.7): 8.9 Molar %
- Molar % rumen V.F.A.: Propionate ([1]; Day 7, 0.5 mg/kg, control 22.9): 25.9 Molar %
- Molar % rumen V.F.A.: Acetate ([1]; Day 7, 0.5 mg/kg, control 65.6): 63.5 Molar %
- anticoccidial activity (in words) (Eimeria tenella): show anticoccidial activity

SMILES: CC(=O)OC1C/C=C/C2CC(OC(=O)C3O[B-]45OC(C(=O)OC6CC(/C=C/CC(OC(C)=O)C(C)(C)C7CCC(C)C3(O7)O4)OC6C)C3(OC(CCC3C)C1(C)C)O5)C(C)O2 (centres unmarked) [Factor C]
- % inhibition of methane (rumen fluid; 1 ppm): 15%
- Ac/Bu, expressed as percentage of untreated controls (rumen fluid; 1 ppm): +18 percentages
- Ac/Pr, expressed as percentage of untreated controls (rumen fluid; 1 ppm): -33 percentages
- % inhibition of methane (rumen fluid; 3 ppm): 44%
- Ac/Bu, expressed as percentage of untreated controls (rumen fluid; 3 ppm): +22 percentages
- Ac/Pr, expressed as percentage of untreated controls (rumen fluid; 3 ppm): -41 percentages
- anticoccidial activity (in words) (Eimeria tenella): show anticoccidial activity

SMILES: CC[C@@]1([C@@H]2O[C@@H]([C@H]3O[C@@](O)(CO)[C@H](C)C[C@@H]3C)C[C@@H]2C)CC[C@H]([C@]2(C)CC[C@]3(C[C@H](O)[C@@H](C)[C@@H]([C@@H](C)[C@@H](OC)[C@H](C)C(=O)O)O3)O2)O1 [Monensin, monensin, reference compound]
- % methane in total gas (rumen fluid; 0.1 μg./ml.): 8.35%
- Ac/Bu (rumen fluid; 0.1 μg./ml.): 4.22
- Ac/Pr (rumen fluid; 0.1 μg./ml.): 1.80
- % methane in total gas (rumen fluid; 0.3 μg./ml.): 7.53%
- Ac/Bu (rumen fluid; 0.3 μg./ml.): 4.11
- Ac/Pr (rumen fluid; 0.3 μg./ml.): 1.65
- % methane in total gas (rumen fluid; 0.5 μg./ml.): 6.75%
- Ac/Bu (rumen fluid; 0.5 μg./ml.): 4.03
- Ac/Pr (rumen fluid; 0.5 μg./ml.): 1.61
- % methane in total gas (rumen fluid; 1 μg./ml.): 5.62%
- Ac/Bu (rumen fluid; 1 μg./ml.): 3.21
- Ac/Pr (rumen fluid; 1 μg./ml.): 1.51
- % methane in total gas (rumen fluid; 3 μg./ml.): 4.53%
- Ac/Bu (rumen fluid; 3 μg./ml.): 3.39
- Ac/Pr (rumen fluid; 3 μg./ml.): 1.54
- Molar % rumen V.F.A.: Butyrate [1, 2]: 9.9 Molar %
- Molar % rumen V.F.A.: Propionate [1, 3]: 28.5 Molar %
- Molar % rumen V.F.A.: Acetate [1, 4]: 60.5 Molar %
- Molar % rumen V.F.A.: Butyrate ([1]; Day 4, 0.5 mg/kg, control 10.2): 11.3 Molar %
- Molar % rumen V.F.A.: Propionate ([1]; Day 4, 0.5 mg/kg, control 24.0): 27.8 Molar %
- Molar % rumen V.F.A.: Acetate ([1]; Day 4, 0.5 mg/kg, control 64.5): 59.8 Molar %
- Molar % rumen V.F.A.: Butyrate [1, 5]: 11.4 Molar %
- Molar % rumen V.F.A.: Propionate [1, 6]: 26.1 Molar %
- Molar % rumen V.F.A.: Butyrate ([1]; Day 7, 0.5 mg/kg, control 10.7): 12.6 Molar %
- Molar % rumen V.F.A.: Propionate ([1]; Day 7, 0.5 mg/kg, control 22.9): 26.2 Molar %
- Molar % rumen V.F.A.: Acetate ([1]; Day 7, 0.5 mg/kg, control 65.6): 60.2 Molar %
